Experimental data from ChEMBL document CHEMBL5550202, “Rationally Designed Highly Potent NKT Cell Agonists with Different Cytokine Selectivity through Hydrogen-Bond Interaction” (J Med Chem, 2024).
Activity calls are given as the source filed them. The calls are words filed in the database; no cut-off is given here.

Legend:
[1] = system: Mus musculus; assay: Induction of Th1/2-balanced cytokine response in BALB/c mouse assessed as increase in IFN-gamma secretion in serum at 2.33 nmol, ip administered as single dose in liposomal formulation and measured after 24 hrs by ELISA; assay type: functional, organism-based
[2] = system: Mus musculus; assay: Induction of Th1/2-balanced cytokine response in BALB/c mouse assessed as increase in IFN-gamma secretion in serum at 0.5 ug, ip administered as single dose in liposomal formulation and measured after 24 hrs by ELISA; assay type: functional, organism-based; details: dose 0.5 µg
[3] = system: Mus musculus; assay: Induction of Th1/2-balanced cytokine response in BALB/c mouse assessed as increase in IL-4 secretion in serum at 0.5 ug, ip administered as single dose in liposomal formulation and measured after 24 hrs by ELISA; assay type: functional, organism-based; details: dose 0.5 µg
[4] = system: Mus musculus; assay: Induction of Th1/2-balanced cytokine response in BALB/c mouse assessed as increase in IFN-gamma/IL-4 secretion ratio at 0.5 ug, ip administered as single dose in liposomal formulation and measured after 24 hrs by ELISA; assay type: functional, organism-based; details: dose 0.5 µg
[5] = system: Mus musculus; assay: Induction of Th1/2-balanced cytokine response in C57BL/6 mouse assessed as increase in IFN-gamma secretion in serum at 2.33 nmol, ip administered as single dose in liposomal formulation and measured for 48 hrs by ELISA; assay type: functional, organism-based
[6] = system: Mus musculus; assay: Induction of Th1/2-balanced cytokine response in C57BL/6 mouse assessed as increase in IL-4 secretion in serum at 2.33 nmol, ip administered as single dose in liposomal formulation and measured for 48 hrs by ELISA; assay type: functional, organism-based
[7] = system: Mus musculus; assay: Induction of Th1/2-balanced cytokine response in BALB/c mouse assessed as activation of immune cells by measuring increase in IL-12 release in serum at 2.33 nmol, ip administered as single dose in liposomal formulation and measured at 6 hrs by ELISA; assay type: functional, organism-based
[8] = Induction of Th1-specific IFN-gamma secretion in C57BL/6 mouse splenocytes assessed as fold increase in IFN-gamma level in supernatant at 1 nM treated as liposomal formulation and measured after 72 hrs by ELISA relative to alpha-galactosylceramide; assay type: functional, Splenocyte
[9] = Induction of Th1-specific IFN-gamma secretion in C57BL/6 mouse splenocytes assessed as fold increase in IFN-gamma level in supernatant at 10 nM treated as liposomal formulation and measured after 72 hrs by ELISA relative to alpha-galactosylceramide; assay type: functional, Splenocyte
[10] = system: Splenocyte; assay: Induction of Th2-specific IL-4 secretion in C57BL/6 mouse splenocytes assessed as increase in IL-4 level in supernatant at 1 to 10 nM treated as liposomal formulation and measured after 72 hrs by ELISA; assay type: functional, cell-based; details: dose 1-10 nM
[11] = system: Splenocyte; assay: Cytotoxicity against C57BL/6 mouse splenocytes assessed as reduction in cell viability at 10 to 1000 nM treated as liposomal formulation measured after 72 hrs by MTT assay; assay type: toxicity, cell-based; details: 1 µM, dose 10-1000 nM
[12] = system: Splenocyte; assay: Induction of Th1-specific IFN-gamma secretion in C57BL/6 mouse splenocytes assessed as increase in IFN-gamma level in supernatant at 100 nM treated as liposomal formulation preincubated for 30 mins with anti-CD1d monoclonal antibody followed by compound addition and measured after 72 hrs by ELISA; assay type: functional, cell-based
[13] = system: Splenocyte; assay: Induction of Th2-specific IL-4 secretion in C57BL/6 mouse splenocytes assessed as increase in IL-4 level in supernatant at 100 nM treated as liposomal formulation preincubated for 30 mins with anti-CD1d monoclonal antibody followed by compound addition and measured after 72 hrs by ELISA; assay type: functional, cell-based
[14] = system: Splenocyte; assay: (§1) Ex vivo induction of Natural killer T cell mediated dendritic cell activation in C57BL/6 mouse splenocytes assessed as increase in CD80 expression on CD11c-positive dendritic cells at 2.33 nmol, ip administered as single dose in liposomal formulation measured after 24 hrs by flow cytometry analysis (reference value: 8.4%); assay type: functional
[15] = system: Splenocyte; assay: as §1, with “CD86” for “CD80”, “8.9%)” for “8.4%)”; assay type: functional
[16] = system: Splenocyte; assay: as §1, with “proportion of IFN-gamma positive natural killer” for “CD80 expression on CD11c-positive dendritic”, “2.74%)” for “8.4%)”; assay type: functional
[17] = molecular target: T1, Antigen-presenting glycoprotein CD1d (Mus musculus) (UniProt P11609+P11610); assay: Binding affinity to Cd1D in C57BL/6 mouse BMDC cells assessed as glycolipid presentation by measuring glycolipid/Cd1D complex formation at 100 nM treated as liposomal formulation and measured at 6 to 24 hrs by L363 cell surface staining based flow cytometry analysis; details: time 6-24 hrs
[18] = molecular target: T1, Antigen-presenting glycoprotein CD1d (Mus musculus); assay: Binding affinity to Cd1D in C57BL/6 mouse BMDC cells assessed as glycolipid presentation by measuring glycolipid/Cd1D complex formation at 100 nM treated as liposomal formulation preincubated for 12 hrs and cells further recultured without compound for 2 to 12 hrs by pulse-chase analysis; assay type: cell-based
[19] = molecular target: T1, Antigen-presenting glycoprotein CD1d (Mus musculus); assay: Binding affinity to Cd1D in intact C57BL/6 mouse BMDC cells assessed as glycolipid/Cd1D complex formation by measuring strong staining of cell membrane at 100 nM treated as liposomal formulation and measured after 18 hrs by L363 mAb staining based confocal microscopic analysis
[20] = system: B16-F10; assay: Antitumor activity against mouse B16-F10 cells implanted in C57BL/6 mouse assessed as reduction in metastatic nodules in lung at 0.58 nmol, ip administered as single dose in liposomal formulation for 1 day followed by tumor inoculation and measured after 3 weeks; assay type: functional, organism-based; details: time 22.0 day
[21] = system: B16-F10; assay: (§2) Antitumor activity against mouse B16-F10 cells implanted in C57BL/6 mouse assessed as reduction in number of metastatic nodules in lung at 0.58 nmol, ip administered as single dose in liposomal formulation for 1 day followed by tumor inoculation and measured after 3 weeks relative to control; assay type: functional; set-up: scale not given: the % may be the effect or the level left; details: time 22 day
[22] = system: B16-F10; assay: Antitumor activity against mouse B16-F10 cells implanted in C57BL/6 mouse assessed as suppression of tumor progression at 0.58 nmol, ip administered as single dose in liposomal formulation for 1 day followed by tumor inoculation and measured after 3 weeks; assay type: functional, organism-based; details: time 22.0 day
[23] = system: B16-F10; assay: as §2, with “inhibition” for “reduction in number”, “of” for “of metastatic nodules in”, “lung metastasis” for “lung”, “weeks by H and E staining based analysis” for “weeks”; assay type: functional; details: time 22 day
[24] = system: Mus musculus; assay: Induction of Th1/2-balanced cytokine response in BALB/c mouse assessed as fold increase in IL-4 secretion in serum at 2.33 nmol, ip administered as single dose in liposomal formulation and measured after 2 hrs by ELISA relative to control; assay type: functional
[25] = system: Mus musculus; assay: Induction of Th1/2-balanced cytokine response in BALB/c mouse assessed as fold increase in IFN-gamma secretion in serum at 2.33 nmol, ip administered as single dose in liposomal formulation and measured after 24 hrs by ELISA relative to control; assay type: functional
[26] = system: Mus musculus; assay: Induction of Th1/2-balanced cytokine response in BALB/c mouse assessed as fold increase in IL-4 secretion in serum at 2.33 nmol, ip administered as single dose in liposomal formulation and measured after 6 to 48 hrs by ELISA; assay type: functional, organism-based; details: time 6-48 hrs

CCCCCCCCCCCCCC[C@@H](O)[C@@H](O)[C@H](CO[C@H]1O[C@H](CO)[C@H](O)[C@H](O)[C@H]1O)NC(=O)CCCCCCCCCCNS(=O)(=O)CCCCCCCCCCCCC
Activity [1]: Active
Activity [2]: Active
Activity [3]: Active
Activity [4]: Active
Activity [5]: Active
Activity [6]: Active
Activity [7]: Active
fold change (FC) [8]: 9.6
fold change (FC) [9]: 7.7
Activity [10]: inactive
Activity [11]: Non-Toxic
Activity [12]: inactive
Activity [13]: inactive
Activity [14]: 32.9%
Activity [15]: 44.6%
Activity [16]: 11.2%
Activity [17]: Active
Activity [18]: Active
Activity [19]: Active
Activity [20]: Active
Activity [21]: 82%
Activity [22]: Active
inhibition (INH) [23]: ~100%

CCCCCCCCCCCCCCCCCCCCCCCCCC(=O)N[C@@H](CO[C@H]1O[C@H](CO)[C@H](O)[C@H](O)[C@H]1O)[C@H](O)[C@H](O)CCCCCCCCCCCCCC [RGI-7000]
Activity [11]: Non-Toxic
Activity [12]: inactive
Activity [13]: inactive
Activity [14]: 27.6%
Activity [15]: 32%
Activity [16]: 6.11%
Activity [20]: Active

CCCCCCCCCCCCCC[C@@H](O)[C@@H](O)[C@H](CO[C@H]1O[C@H](CO)[C@H](O)[C@H](O)[C@H]1O)NC(=O)CCCCCCCCCCCCNS(=O)(=O)CCCCCCCCCCC
Activity [11]: Non-Toxic
Activity [12]: inactive
Activity [13]: inactive

CCCCCCCCCCCCCC[C@@H](O)[C@@H](O)[C@H](CO[C@H]1O[C@H](CO)[C@H](O)[C@H](O)[C@H]1O)NC(=O)CCCCCCCCCCCNS(=O)(=O)CCCCCCCCCCCC
fold change (FC) [24]: 4.7
fold change (FC) [25]: 7
Activity [2]: Active
Activity [3]: Active
Activity [4]: Active
Activity [5]: Active
Activity [6]: Active
Activity [7]: Active
fold change (FC) [8]: 6.2
fold change (FC) [9]: 4.7
Activity [10]: inactive
Activity [11]: Non-Toxic
Activity [12]: inactive
Activity [13]: inactive
Activity [14]: 33.9%
Activity [15]: 46.8%
Activity [16]: 12%
Activity [17]: Active
Activity [19]: Active
Activity [20]: Active
Activity [21]: 66%
Activity [26]: inactive

CCCCCCCCCCCCCC[C@@H](O)[C@@H](O)[C@H](CO[C@H]1O[C@H](CO)[C@H](O)[C@H](O)[C@H]1O)NC(=O)CCCCCCCCCNS(=O)(=O)CCCCCCCCCCCCCC
Activity [11]: Non-Toxic
Activity [12]: inactive
Activity [13]: inactive

CCCCCCCCCCCCCC[C@@H](O)[C@@H](O)[C@H](CO[C@H]1O[C@H](CO)[C@H](O)[C@H](O)[C@H]1O)NC(=O)CCCCCCCCCCCCCNS(=O)(=O)CCCCCCCCCC
Activity [11]: Non-Toxic
Activity [12]: inactive
Activity [13]: inactive
